Experimental data taken from patent publication US20260139006A1, “CYCLIC PEPTIDE AS INHIBITORS OF FREE-LIVING AMOEBA” (Purdue Research Foundation, priority 2024, published 2026).

Assay: Mammalian cytotoxicity counter screening (CellTiter-Glo)
Assay type: cell-based
Settings: human; read-out: A549 IC50 (cytotoxicity)
Description: Cytotoxicity of the cyclic peptides was also determined by using the CellTiter-Glo 2.0® assay on A549 human lung carcinoma cells. A549 cells were seeded at a concentration of 1.6×10^4 cells/mL in 96-well plates in the presence of serially diluted compounds, as described above. DMSO (1%) and 100 μM of chlorhexidine were used as the negative and positive controls. A549 were grown in F12K medium supplemented with 10% FBS and 1% penicillin/streptomycin antibiotics. […] The total volume of each well was 100 μL, containing 10 μL compounds and 90 μL cells, and plates were incubated at 37° C., 5% CO2 for 72 hours. At the 72-hours time point, CellTiter-Glo 2.0 Reagent® was added to all the wells and read by the SpectraMax® i3X plate reader as described above. Curve fitting using non-linear regression was carried out using the average of replicates and the Levenberg-Marquardt algorithm, using DMSO as the normalization control, as defined in CDD Vault. The selectivity index (SI) was calculated by using the equation: SI=(IC50 of A549's)/(IC50 of Balamuthia mandrillaris) to determine the specificity of inhibitors.

## N=C(N)c1ccc(OCCCCCOc2ccc(C(=N)N)cc2)cc1 [pentamidine]
  IC50 at 72 h: 12.8 µM
